The values below come from US9416129B2, “Tricyclic substituted thiadiazine dioxide compounds as BACE inhibitors, compositions and their use” (Merck Sharp & Dohme Corp., priority 2012, dated 2016).

Data set [1] has as its target human P-glycoprotein (Homo sapiens (Human), UniProt P08183). The data set is described as follows: Pgp Mdr1 efflux ratio. The format is in vitro ADME. As to conditions: for Pgp Mdr1 ER: efflux ratio, human P-glycoprotein.
The target in data set [2] is soluble human BACE1 catalytic domain (Homo sapiens (Human), UniProt P56817). In words: BACE1 HTRF FRET assay. The format is biochemical. As to conditions: for Ki: Ki calculated from IC50 using the Cheng-Prusoff equation. From the text: Na^+-Acetate pH 5.0; 1% Brij-35; Glycerol; Dimethyl Sulfoxide (DMSO); Recombinant human soluble BACE1 catalytic domain (>95% pure); APP Swedish mutant peptide substrate (QSY7-APP^swe-Eu): QSY7-[…]-Europium-amide.
A homogeneous time-resolved FRET assay can be used to determine IC50 values for inhibitors of the soluble human BACE1 catalytic domain. This assay monitors the increase of 620 nm fluorescence that resulted from BACE1 cleavage of an APPswedish APP^swe mutant peptide FRET substrate (QSY7-[…]-Europium-amide). This substrate contains an N-terminal QSY7 moiety that serves as a quencher of the C-terminal Europium fluorophore (620 nm Em). In the absence of enzyme activity, 620 nm fluorescence is low in the assay and increased linearly over 3 hours in the presence of uninhibited BACE1 enzyme Inhibition of BACE1 cleavage of the QSY7-APP^swe-Eu substrate by inhibitors is manifested as a suppression of 620 nm fluorescence.
Varying concentrations of inhibitors at 3× the final desired concentration in a volume of 10 ul are preincubated with purified human BACE1 catalytic domain (3 nM in 10 μl) for 30 minutes at 30° C. in reaction buffer containing 20 mM Na-Acetate pH 5.0, 10% glycerol, 0.1% Brij-35 and 7.5% DSMO. Reactions are initiated by addition of 10 μl of 600 nM QSY7-APP^swe-Eu substrate (200 nM final) to give a final reaction volume of […] in a 384 well Nunc HTRF plate. The reactions are incubated at 30° C. for 1.5 hours. The 620 nm fluorescence is then read on a Rubystar HTRF plate reader (BMG Labtechnologies) using a 50 millisecond delay followed by a 400 millisecond acquisition time window. Inhibitor IC50 values are derived from non-linear regression analysis of concentration response curves.

The target in data set [3] is human autoBACE-2 (Homo sapiens (Human), UniProt Q9Y5Z0). The data set is described as follows: BACE-2 assay (BACE-HTRF, time-resolved endpoint proteolysis). Type of data set: biochemical. As to conditions: Ki calculated from IC50 using the Cheng-Prusoff equation; read-out: BACE2 Ki. As to the method:
Inhibitor IC50s at purified human autoBACE-2 are determined in a time-resolved endpoint proteolysis assay that measures hydrolysis of the QSY7-[…]-Eu-amide FRET peptide substrate (BACE-HTRF assay). […] DMSO is present at 5% final concentration in the assay. Following laser excitation of sample wells at 320 nm, the fluorescence signal at 620 nm is collected for 400 ms following a 50 μs delay on a RUBYstar HTRF plate reader (BMG Labtechnologies). Raw RFU data is normalized to maximum (1.0 nM BACE/DMSO) and minimum (no enzyme/DMSO) RFU values. […] The Ki values are calculated from the IC50 using the Cheng-Prusoff equation.

In data set [4] the target is Cathepsin-D (Homo sapiens (Human), UniProt P07339). The data set is described as follows: Cathepsin-D inhibition (selectivity). Type of data set: biochemical.

Each structure is given as a SMILES string.

As usually defined, the Ki is a measure of affinity in units of concentration, obtained from inhibition or displacement.

Sequence of human P-glycoprotein (P08183 whole entry, the tested form may be a part): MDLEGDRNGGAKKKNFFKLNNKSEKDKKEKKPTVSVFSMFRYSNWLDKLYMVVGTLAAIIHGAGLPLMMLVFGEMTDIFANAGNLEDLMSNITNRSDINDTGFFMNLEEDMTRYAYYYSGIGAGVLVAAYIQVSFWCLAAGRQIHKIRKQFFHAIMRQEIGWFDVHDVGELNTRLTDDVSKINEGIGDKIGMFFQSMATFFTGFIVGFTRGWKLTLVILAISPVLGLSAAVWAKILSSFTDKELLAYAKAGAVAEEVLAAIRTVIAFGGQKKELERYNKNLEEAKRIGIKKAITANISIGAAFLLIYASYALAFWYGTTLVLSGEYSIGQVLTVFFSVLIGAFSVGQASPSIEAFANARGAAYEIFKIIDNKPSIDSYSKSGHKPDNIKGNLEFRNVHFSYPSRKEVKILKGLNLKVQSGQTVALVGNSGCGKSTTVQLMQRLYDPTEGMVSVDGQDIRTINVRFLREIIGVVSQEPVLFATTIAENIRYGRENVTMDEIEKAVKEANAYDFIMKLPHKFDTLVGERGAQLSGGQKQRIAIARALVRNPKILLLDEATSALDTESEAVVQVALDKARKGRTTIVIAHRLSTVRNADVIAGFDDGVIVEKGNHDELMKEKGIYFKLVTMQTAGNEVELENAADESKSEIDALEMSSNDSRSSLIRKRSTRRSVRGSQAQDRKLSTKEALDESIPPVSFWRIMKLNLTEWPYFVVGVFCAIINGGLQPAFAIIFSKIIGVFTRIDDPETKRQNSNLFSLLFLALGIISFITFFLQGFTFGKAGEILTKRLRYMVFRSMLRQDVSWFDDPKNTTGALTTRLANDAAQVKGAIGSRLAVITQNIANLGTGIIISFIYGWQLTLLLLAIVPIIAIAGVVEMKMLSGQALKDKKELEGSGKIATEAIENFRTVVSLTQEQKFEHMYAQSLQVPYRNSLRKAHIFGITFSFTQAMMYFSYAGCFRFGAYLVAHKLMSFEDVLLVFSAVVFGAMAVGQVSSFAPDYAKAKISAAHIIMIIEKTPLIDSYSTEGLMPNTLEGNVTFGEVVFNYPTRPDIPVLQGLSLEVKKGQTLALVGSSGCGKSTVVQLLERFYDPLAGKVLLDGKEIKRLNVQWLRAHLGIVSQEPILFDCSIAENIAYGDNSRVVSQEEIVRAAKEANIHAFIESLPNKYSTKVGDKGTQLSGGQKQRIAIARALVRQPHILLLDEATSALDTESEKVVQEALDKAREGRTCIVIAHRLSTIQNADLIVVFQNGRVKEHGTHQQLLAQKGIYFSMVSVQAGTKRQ
Sequence of human autoBACE-2 (Q9Y5Z0 63-473 limits assumed): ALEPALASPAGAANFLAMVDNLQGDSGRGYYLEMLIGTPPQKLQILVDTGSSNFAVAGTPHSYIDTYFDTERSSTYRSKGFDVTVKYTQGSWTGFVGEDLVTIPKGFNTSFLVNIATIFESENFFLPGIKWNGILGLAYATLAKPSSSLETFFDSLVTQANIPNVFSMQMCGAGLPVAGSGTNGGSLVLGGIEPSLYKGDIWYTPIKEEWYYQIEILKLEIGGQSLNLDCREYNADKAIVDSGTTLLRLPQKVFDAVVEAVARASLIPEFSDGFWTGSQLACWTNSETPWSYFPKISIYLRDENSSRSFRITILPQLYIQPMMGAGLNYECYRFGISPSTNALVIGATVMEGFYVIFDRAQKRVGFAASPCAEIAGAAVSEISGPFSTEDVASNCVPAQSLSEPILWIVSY
Sequence of soluble human BACE1 catalytic domain (P56817 75-416): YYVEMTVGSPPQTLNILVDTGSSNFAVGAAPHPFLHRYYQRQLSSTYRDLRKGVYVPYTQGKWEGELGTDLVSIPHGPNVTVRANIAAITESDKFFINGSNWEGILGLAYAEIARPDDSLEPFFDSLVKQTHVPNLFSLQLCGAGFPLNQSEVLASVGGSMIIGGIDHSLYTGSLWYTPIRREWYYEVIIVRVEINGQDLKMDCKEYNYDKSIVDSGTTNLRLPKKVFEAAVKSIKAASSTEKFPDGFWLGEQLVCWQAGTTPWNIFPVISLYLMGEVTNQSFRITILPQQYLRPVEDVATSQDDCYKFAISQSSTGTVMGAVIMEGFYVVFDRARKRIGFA
Sequence of Cathepsin-D (P07339 65-412, species assumed): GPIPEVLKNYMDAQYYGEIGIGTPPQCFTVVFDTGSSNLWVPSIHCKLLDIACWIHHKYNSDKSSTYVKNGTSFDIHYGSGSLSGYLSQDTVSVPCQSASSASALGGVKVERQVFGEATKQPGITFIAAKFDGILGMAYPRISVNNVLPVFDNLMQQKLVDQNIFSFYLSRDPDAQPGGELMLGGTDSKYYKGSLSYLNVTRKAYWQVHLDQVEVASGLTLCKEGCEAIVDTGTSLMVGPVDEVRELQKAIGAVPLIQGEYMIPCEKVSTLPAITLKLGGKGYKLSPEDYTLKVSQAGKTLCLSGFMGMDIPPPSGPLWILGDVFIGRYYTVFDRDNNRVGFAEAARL

`CN1C(=N)N[C@](C)(c2sc(-c3cccc(-c4ncco4)c3)cc2Cl)CS1(=O)=O` [Example 6]: the “Pgp Mdr1 ER” value in data set [1] is 0.49. In addition, the results for the Ki in data set [2] and in data set [3] were 4.7 nM and 1.4 nM, respectively.

As for `CN1C(=N)N[C@](C)(c2sc(-c3cccc(-c4ncco4)c3)cc2F)CS1(=O)=O` [Example 7], the “Pgp Mdr1 ER” value in data set [1] was determined as 1.7. Further, the Ki was 8.7 nM in data set [2] and 0.73 nM in data set [3].

`CN1C(=N)N[C@](C)(c2sc(-c3cccc(-c4cnco4)c3)cc2Cl)CS1(=O)=O` [Example 11]: in data set [1], the “Pgp Mdr1 ER” value worked out at 1.3. Moreover, the Ki in data set [2] is 1.7 nM; in data set [3] it was 2 nM.

In the case of `CN1C(=N)N[C@](C)(c2sc(-c3cccc(-c4cnco4)c3)cc2F)CS1(=O)=O` [Example 12], the “Pgp Mdr1 ER” value in data set [1] stood at 1.8. Besides, the Ki is 3.3 nM in data set [2] and 3.7 nM in data set [3].

As to `CN1C(=N)N[C@](C)(c2sc(-c3cccc(-c4ccno4)c3)cc2F)CS1(=O)=O` [Example 14], the “Pgp Mdr1 ER” value in data set [1] was 1.6. Moreover, the Ki in data set [2] was 6.9 nM; in data set [3] it was 3.5 nM.

For `CN1C(=N)N[C@](C)(c2sc(-c3cccc(-c4nnc(C5CC5)o4)c3)cc2Cl)CS1(=O)=O` [Example 17], the “Pgp Mdr1 ER” value in data set [1] was found to be 1.0. In addition, the Ki in data set [2] was 203 nM; in data set [3], 2.2 nM.

On to `CN1C(=N)N[C@](C)(c2sc(-c3cccc(-c4nnc(C5CC5)o4)c3)cc2F)CS1(=O)=O` [Example 18], for which the “Pgp Mdr1 ER” value in data set [1] worked out at 0.53. In addition, the Ki in data set [2] is 177 nM; in data set [3] it was 4.2 nM.

In the case of `CN1C(=N)N[C@](C)(c2sc(-c3cc(F)cc(-c4cnco4)c3)cc2Cl)CS1(=O)=O` [Example 23], the “Pgp Mdr1 ER” value in data set [1] was found to be 0.90. Besides, the Ki in data set [2] was 11.4 nM; in data set [3], 4.8 nM.

In the case of `CN1C(=N)N[C@](C)(c2sc(-c3cc(F)cc(-c4cnco4)c3)cc2F)CS1(=O)=O` [Example 25], the “Pgp Mdr1 ER” value in data set [1] is 1.1. The Ki is 12.5 nM in data set [2] and 4.8 nM in data set [3].

For the compound `Cc1noc(-c2cccc(-c3cc(F)c([C@]4(C)CS(=O)(=O)N(C)C(=N)N4)s3)c2)n1` [Example 38], the “Pgp Mdr1 ER” value in data set [1] is reported as 1.7. Moreover, the Ki is 29.1 nM in data set [2] and 3.6 nM in data set [3].

Regarding `Cc1nc(-c2cccc(-c3cc(Cl)c([C@]4(C)CS(=O)(=O)N(C)C(=N)N4)s3)c2)no1` [Example 41], in data set [1], the “Pgp Mdr1 ER” value is 0.34. The Ki in data set [2] is 13.4 nM; in data set [3] it was 0.35 nM.

Regarding `Cc1nc(-c2cccc(-c3cc(F)c([C@]4(C)CS(=O)(=O)N(C)C(=N)N4)s3)c2)no1` [Example 42], the “Pgp Mdr1 ER” value in data set [1] was 1.2. The values for the inhibitory constant (Ki) in data set [2] and in data set [3] were 25.4 nM and 1.1 nM, respectively.

For `CN1C(=N)N[C@](C)(c2sc(-c3cccc(-c4ncon4)c3)cc2Cl)CS1(=O)=O` [Example 46], in data set [1], the “Pgp Mdr1 ER” value was 0.70. For the same compound, the Ki is 3.3 nM in data set [2] and 0.41 nM in data set [3].

As to `CN1C(=N)N[C@](C)(c2sc(-c3cccc(-c4ncon4)c3)cc2F)CS1(=O)=O` [Example 47], the “Pgp Mdr1 ER” value in data set [1] is given as 1.7. For the same compound, the Ki was 3.9 nM in data set [2] and 0.34 nM in data set [3].

In the case of `CN1C(=N)N[C@](C)(c2sc3c(-c4ccc(-n5cccn5)nc4)nccc3c2Cl)CS1(=O)=O` [Example 80], in data set [1], the “Pgp susceptibility (in words)” value is reported as “low Pgp susceptibility” and the “Pgp Mdr1 ER” value came out at 0.78. In data set [2], the “BACE potency (in words)” value is reported as “good BACE potency” and the Ki was 10 nM. The Ki in data set [4] (read-out: Cath-D Ki) is 6.97 µM. In addition, the “Cathepsin-D selectivity (in words)” value in data set [4] (selectivity for BACE over Cathepsin-D) is “good Cathepsin-D selectivity”. Also, the inhibitory constant (Ki) in data set [3] is 16 nM.

As for `CN1C(=N)N[C@](C)(c2sc3c(-c4ccc(-c5nccn5C)cc4)nccc3c2Cl)CS1(=O)=O` [Example 105], the Ki in data set [2] was 1640 nM; in data set [3] it was 86 nM.

For `CN1C(=N)N[C@](C)(c2sc3c(-c4ccc(-c5nccs5)cc4)nccc3c2Cl)CS1(=O)=O` [Example 106], the inhibitory constant (Ki) in data set [2] was 270 nM; in data set [3], 1640 nM.

Turning to `CN1C(=N)N[C@](C)(c2sc3c(-c4ccc(-c5ccoc5)cc4F)nccc3c2Cl)CS1(=O)=O` [Example 107], the Ki in data set [2] is 19.7 nM; in data set [3], 270 nM.

As for `CN1C(=N)N[C@](C)(c2sc3c(-c4ccc(-c5cnco5)cc4F)nccc3c2Cl)CS1(=O)=O` [Example 108], the Ki in data set [2] is 35.2 nM; in data set [3], 19 nM.

On to `Cc1occc1-c1ccc(-c2nccc3c(Cl)c([C@]4(C)CS(=O)(=O)N(C)C(=N)N4)sc23)c(F)c1` [Example 109], for which the Ki was 525 nM in data set [2] and 87 nM in data set [3].

On to `Cc1cocc1-c1ccc(-c2nccc3c(Cl)c([C@]4(C)CS(=O)(=O)N(C)C(=N)N4)sc23)c(F)c1` [Example 110], for which the figures for the Ki in data set [2] and in data set [3] were 112 nM and 444 nM, respectively.

`CN1C(=N)N[C@](C)(c2sc3c(-c4ccc(-c5ccnn5C)cc4F)nccc3c2Cl)CS1(=O)=O` [Example 111]: the inhibition constant (Ki) in data set [2] was 197 nM; in data set [3], 27 nM.

In the case of `CN1C(=N)N[C@](C)(c2sc3c(-c4ccc(-c5cnn(C)c5)cc4F)nccc3c2Cl)CS1(=O)=O` [Example 112], the inhibitory constant (Ki) in data set [2] is 291 nM; in data set [3], 218 nM.

For the compound `CN1C(=N)N[C@](C)(c2sc3c(-c4ccc(-c5cncs5)cc4F)nccc3c2Cl)CS1(=O)=O` [Example 113], the Ki was 105 nM in data set [2] and 252 nM in data set [3].

Take `CN1C(=N)N[C@](C)(c2sc3c(-c4ccc(-c5cn[nH]c5)cc4F)nccc3c2Cl)CS1(=O)=O` [Example 114]: the Ki in data set [2] is 330 nM; in data set [3], 134 nM.

With `COc1cnn(-c2ccc(-c3nccc4c(Cl)c([C@]5(C)CS(=O)(=O)N(C)C(=N)N5)sc34)c(F)c2)c1` [Example 115], the Ki is 17.7 nM in data set [2] and 267 nM in data set [3].

For `CN1C(=N)N[C@](C)(c2sc3c(-c4ccc(-n5cccn5)cc4F)nccc3c2Cl)CS1(=O)=O` [Example 116], the Ki in data set [2] was 31.4 nM; in data set [3], 110 nM.

Regarding `CCCc1cnn(-c2ccc(-c3nccc4c(Cl)c([C@]5(C)CS(=O)(=O)N(C)C(=N)N5)sc34)c(F)c2)c1` [Example 117], the Ki in data set [2] was 259 nM; in data set [3], 35 nM.

Turning to `CCc1cnn(-c2ccc(-c3nccc4c(Cl)c([C@]5(C)CS(=O)(=O)N(C)C(=N)N5)sc34)c(F)c2)c1` [Example 118], the Ki in data set [2] was 229 nM; in data set [3] it was 702 nM.

`Cc1cnn(-c2ccc(-c3nccc4c(Cl)c([C@]5(C)CS(=O)(=O)N(C)C(=N)N5)sc34)c(F)c2)c1` [Example 119]: the Ki in data set [2] was 189 nM; in data set [3], 417 nM.

For `COc1ccnc(N2CCN(c3nccc4c(Cl)c([C@]5(C)CS(=O)(=O)N(C)C(=N)N5)sc34)CC2)c1` [Example 121], the values for the Ki in data set [2] and in data set [3] were 1860 nM and 1260 nM, respectively.

Regarding `Cc1nsc(C2CCN(c3nccc4c(Cl)c([C@]5(C)CS(=O)(=O)N(C)C(=N)N5)sc34)CC2)n1` [Example 122], the Ki in data set [2] was 885 nM; in data set [3], 408 nM.
